Our source for the Ki values is ChEMBL document CHEMBL3608259, “Carbonic Anhydrase Glycoinhibitors belonging to the Aminoxysulfonamide Series” (ACS Med Chem Lett, 2015).

The assay addresses Carbonic anhydrase 9 (Homo sapiens, UniProt Q16790).

Description: Inhibition of human recombinant carbonic anhydrase-9 catalytic domain by stopped-flow CO2 hydration assay

The molecule `NS(=O)(=O)ONC(=O)OCc1ccccc1` yielded a Ki of 57 nM.

In turn, `CC(=O)OC[C@H]1OC(NS(=O)(=O)ON)C=C[C@H]1OC(C)=O` (mixture of isomers) showed an inhibitory constant (Ki) of 75 nM.

For the molecule `CC(=O)O[C@@H]1C=CC(NS(=O)(=O)ON)O[C@H]1C` (mixture of isomers), the inhibition constant Ki turned out to be 86 nM.

As for `NOS(=O)(=O)NC(=O)OCc1ccccc1`, the Ki came to 77 nM.

Molecule `C[C@@H]1OC(NS(=O)(=O)ON)C=C[C@H]1O` (mixture of isomers) yielded an inhibition constant (Ki) of 61 nM.

As to `CC(=O)OC[C@H]1OC(NS(=O)(=O)ON)C=C[C@@H]1OC(C)=O` (mixture of isomers), the inhibitory constant (Ki) was 90 nM.

On to `CC(=O)O[C@@H]1C=CC(NS(=O)(=O)ON)OC1` (mixture of isomers), for which the Ki was 86 nM.

In turn, `CC(=O)O[C@H]1C=CC(NS(=O)(=O)ON)OC1` (mixture of isomers) had an inhibition constant (Ki) of 75 nM.

Molecule `NOS(=O)(=O)NC1C=C[C@@H](O)[C@@H](CO)O1` (mixture of isomers) registered a Ki of 61 nM.

With `NOS(=O)(=O)NC1C=C[C@@H](O)CO1` (mixture of isomers), the Ki came out at 74 nM.

`NOS(=O)(=O)NC1C=C[C@H](O)CO1` (mixture of isomers) returned an inhibition constant Ki of 91 nM.

`NOS(=O)(=O)NC1C=C[C@H](O)[C@@H](CO)O1` (mixture of isomers) had an inhibition constant Ki of 85 nM.

For orientation: Ki means the dissociation constant of the complex between target and ligand, obtained from inhibition or displacement. A higher Ki goes with weaker binding.
